Laboratory results published in US12251401B2, “Synthesis and antimicrobial uses of dinuclear silver(I) pyrazolates” (The Florida International University Board of Trustees, priority 2018, dated 2025).
Where two headings read alike, the source gives them in different places.

Legend:
P. aeruginosa = assay: Bacterial eradication assessed using the optical density method; format: cell-based, Pseudomonas aeruginosa
Description: FIGS. 51A-51B show the results of bacterial eradication by compounds of complex (5) and complex (29) assessed using the optical density method.
(§1) Both complex (5) and complex (29) were comparatively tested against P. aeruginosa.

Solubility (qualitative) = format: physicochemical
Description: All complexes provided herein were neutral and soluble in variety of organic solvents.
as §1

Pseudomonas aeruginosa = assay: Skin and soft tissue infection (SSTI) two-layer agar model, zone of inhibition around KBr pellets; format: cell-based; conditions: KBr pellet with 2% (w/w) of substance on P. aeruginosa lawn, incubation at 37° C. for 18 h
Description: A skin and soft tissue infection (SSTI) model was used to study the antibacterial properties of three silver complexes. In this model, two layers of agar were employed to mimic a tissue infection with a nutrient rich bottom and the soft-top layer to allow for even dispersal of bacteria. The top soft agar acts like the skin and as bacteria grow they migrate towards the bottom nutrient layer mimicking an infected tissue. Frozen samples of Pseudomonas Aeruginosa were thawed and streaked on an agar plate. A single colony was selected and grown in Luria Broth (LB) for 18 h. The suspension was diluted with LB until an A600 (absorbance) of 0.5 was reached. The soft agar bacterial suspension was prepared by adding 120 mL of the above solution to 100 mL 0.8% (w/v) agar with 1% NaCl, which had been autoclaved and cooled to 45° C. before addition. The suspension was gently vortexed and 8 mL was spread evenly on the surface of 20 mL of a 1.5% (w/v) TSB agar plate (100×15 mm^2) and allowed to solidify. The plates were incubated for 2 h at 37° C. in order for the bacteria to reach log phase before bactericidal experiments were performed.
Blank KBr pellets (typically utilized for recording IR spectra) and KBr pellets with 2% (w/w) of three complexes (1), (2) and (5), each weighing between 34 and 46 mg, were evenly mulled and pressed with a two-ton load. Three blanks, containing PTA, or 4-Cl-pzH, or PPh3, were also prepared in the same manner. Pellets were carefully placed on the plates (see Example 8) after 2 h of incubation at 37° C.
A previously developed soft tissue infection (SSTI) model has been utilized for the present antibacterial studies. […] The gradient causes the bacteria to slowly travel from the slender top layer to the nutrient-rich bottom layer, much alike what would occur in a typical skin infection.

| Molecule | zone of bacterial clearing (zone of inhibition) (Pseudomonas aeruginosa) | also measured |
| --- | --- | --- |
| disilver(I)-bis(μ-3-methyl-pyrazolido)bis(PTA) [complex (29)] |  | eradication of the bacterial culture (P. aeruginosa; P. aeruginosa, lowest concentration tested, 31.25 μg/mL): ~90%; solubility in water and several bacterial growth media (Solubility (qualitative)): readily soluble |
| disilver(I)-bis(μ-4-Cl-pyrazolido)(PPh3)3 [complex (2)] | minimal bacterial clearance |  |
| disilver(I)-bis(μ-4-Cl-pyrazolido)tetrakis(PPh3) [complex (1)] | minimal bacterial clearance |  |
| disilver(I)-bis(μ-4-Cl-pyrazolido)tetrakis(PTA) [complex (5)] | Visible circular zones of bacterial clearing | IC50, eradication of the bacterial culture (P. aeruginosa; P. aeruginosa culture, optical density, increasing concentrations): > 2000 µg/mL; solubility in aqueous media (Solubility (qualitative); aqueous media): highly soluble; solubility in water and several bacterial growth media (Solubility (qualitative); water and several bacterial growth media): readily soluble |
| c1ccc(P(c2ccccc2)c2ccccc2)cc1 [PPh3, triphenylphosphine] | no zone of inhibition |  |
| C1N2CN3CN1CP(C2)C3 [PTA, 1,3,5-triazaphosphaadamantane] | much smaller but still visible zones of bacterial growth inhibition |  |
| O=[N+]([O-])[O-].[Ag+] [AgNO3, silver nitrate] | Visible circular zones of bacterial clearing |  |
| Clc1cn[nH]c1 [4-Cl-pzH, 4-Cl-pyrazole] | much smaller but still visible zones of bacterial growth inhibition |  |
